Where “and” joins values, the source holds several entries; their conditions need not be identical. Equal entries are not always repeated. Where two headings read alike, the source gives them in different places.
Legend:
wild-type tobacco plants = test: spray test, herbicidal damage scoring; assay type: in vivo; settings: Table 4.1, 7 days after treatment, 100=complete death, 0=no damage, one value per plant/event
Experimental: Once rooted, plantlets are transferred from agar and potted into 50% peat, 50% John Innes Soil No. 3 or, for example, MetroMix® 380 soil (Sun Gro Horticulture, Bellevue, WA) with slow-release fertilizer in 3 inch round or 4 inch square pots and left regularly watered to establish for 8-12d in the glass house. Glass house conditions are about 24-27° C. day; 18-21° C. night and approximately a 14h (or longer in UK summer) photoperiod.
About 20-30 TO events are produced for a number of HPPD variant genes.
Tables 4.1-4.9 show the herbicidal damage scoring on transgenic tobacco plants 7 days after treatment. A score of 100=complete death and 0=no damage observed.

[1] = target: HPPD variant AVESA V208 (SEQ ID NO: 14) (Avena sativa, UniProt A0ACD5V6K6, A327R/I340E/L359M/P271N/V218I); test: biochemical; assay type: biochemical
Sequence of HPPD variant AVESA V208 (SEQ ID NO: 14) (A0ACD5V6K6 entry or part of it V218I/P271N/A327R/I340E/L359M): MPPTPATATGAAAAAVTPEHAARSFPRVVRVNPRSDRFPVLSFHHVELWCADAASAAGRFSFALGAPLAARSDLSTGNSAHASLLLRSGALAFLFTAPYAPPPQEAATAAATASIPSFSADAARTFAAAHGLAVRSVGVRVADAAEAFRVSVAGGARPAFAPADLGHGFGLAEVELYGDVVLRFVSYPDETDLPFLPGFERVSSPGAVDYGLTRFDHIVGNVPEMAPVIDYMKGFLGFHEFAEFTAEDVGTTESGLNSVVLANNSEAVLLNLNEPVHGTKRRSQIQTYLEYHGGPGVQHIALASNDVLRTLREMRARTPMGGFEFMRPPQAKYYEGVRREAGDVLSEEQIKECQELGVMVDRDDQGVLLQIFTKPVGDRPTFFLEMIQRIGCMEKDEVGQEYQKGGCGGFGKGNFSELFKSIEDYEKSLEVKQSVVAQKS
Experimental: (§1) 25 ul of the overnight cultures were inoculated into fresh 96-deepwell block containing 1 ml Formedium Autoinduction Media (AIM). The AIM cultures were grown for 3h at 37° C. (900rpm) and then transferred to 20° C. overnight (900rpm) to allow protein expression. The overnight cultures were centrifuged and 500 ul of Cellytic B (Sigma Aldrich) was added to resuspend the cell pellets. The coupled HGO assay (Siehl et al, 2014) is used to generate IC50 values for the HPPD variants of interest.
(§2) E. coli BL21 (DE3) cells were transformed with a pET24a vector containing a C-terminally his-tagged Arabidopsis HGO gene, grown and induced overnight as described for the HPPD variants above. The cell pellet was resuspended in phosphate buffered saline at pH 7.4 containing 10% Glycerol, 1mm Tris[2-carboxyethyl] phosphine-HCl (TCEP) plus 30 mM Imidazole and lysed using lysozyme/benzonase. The extract was clarified by low speed centrifugation and purified in the same buffer down a 1 ml His Gravitrap column. The bound HGO was eluted in 0.25M imidazole and the fractions pooled and beaded into liquid nitrogen. All procedures apart from the centrifugation and beading steps were carried out under a nitrogen atmosphere.
(§3) The coupled HGO assay is carried out by adding 10 ul of HPPD extract to a 96-well plate and then adding 40 ul of reaction buffer (50 mM Bis Tris Propane, pH7.0, 25 mM sodium-L-ascorbate, 400μM mercaptoethanol, 50 μM Fe(II)SO4). The plates are left to incubate for 5 minutes on ice. […] 200 ul of HPP/HGO (197 μM hydroxyphenylpyruvic acid, 16 μl/ml Homogentisic Acid Oxidase in reaction buffer as described above) buffer is then added to the well and the reaction is regularly monitored (e.g. every 30 seconds-5 minutes) for absorbance at 330 nm for a given time period (e.g., for between 15-60 minutes). The data can then be used to calculate the IC50 value for each HPPD variant of interest.

[2] = tested on: HPPD variant AVESA V357 (SEQ ID NO: 53); test: biochemical; assay type: biochemical, Avena sativa
Experimental: as §1, §2, §3

[3] = target: HPPD variant AVESA V349 (SEQ ID NO: 47) (Avena sativa, UniProt A0ACD5V6K6, A327R/I340E/L359M/P271N/S304T/V218I); test: biochemical; assay type: biochemical
Sequence of HPPD variant AVESA V349 (SEQ ID NO: 47) (A0ACD5V6K6 entry or part of it V218I/P271N/S304T/A327R/I340E/L359M): as the sequence (A0ACD5V6K6 entry or part of it V218I/P271N/A327R/I340E/L359M) above, with S304T counted along it
Experimental: as §1, §2, §3

[4] = target: HPPD variant AVESA V357 (SEQ ID NO: 53) (Avena sativa, UniProt A0ACD5V6K6, A327R/I340E/L359M/P271N/R214G/S304T/V218I); test: biochemical; assay type: biochemical
Sequence of HPPD variant AVESA V357 (SEQ ID NO: 53) (Avena sativa, UniProt A0ACD5V6K6, A327R/I340E/L359M/P271N/R214G/S304T/V218I) (A0ACD5V6K6 entry or part of it R214G/V218I/P271N/S304T/A327R/I340E/L359M): as the sequence (A0ACD5V6K6 entry or part of it V218I/P271N/A327R/I340E/L359M) above, with R214G, S304T counted along it
Experimental: as §1, §2, §3

[5] = tested on: HPPD variant APESV V162 (SEQ ID NO: 123); test: coupled HGO assay; assay type: biochemical, Apera spica-venti
Experimental: (§4) DNA sequences (SEQ ID NOs: 65-118, 128, 130, 131, and 133), synthesized for expression in E. coli, by GeneWiz (USA) to encode HPPD variants (SEQ ID NOs: 5-58, 122, 124, 125 and 127) derived from either Avena sativa (SEQ ID NOs: 122, 124), Alopecurus myosuroides (SEQ ID NO: 126) or Apera spica-venti (SEQ ID NOs: 123, 125) were transformed into E coli BL21 (DE3) (New England Biolabs) and grown in 0.5 ml Terrific broth +50 ug/ml Kanamycin media in a 96-deepwell block overnight (37° C., 900rpm). 25 ul of the overnight cultures were inoculated into fresh 96-deepwell block containing 1 ml Formedium Autoinduction Media (AIM). The AIM cultures were grown for 3h at 37° C. (900rpm) and then transferred to 20° C. overnight (900rpm) to allow protein expression. The overnight cultures were centrifuged and 500 ul of Cellytic B (Sigma Aldrich) was added to resuspend the cell pellets. The coupled HGO assay (Siehl et al, 2014) is used to generate IC50 values for the HPPD variants of interest.
as §2, §3

[6] = tested on: HPPD variant ALOME V162 (SEQ ID NO: 126); test: coupled HGO assay; assay type: biochemical, Alopecurus myosuroides
Experimental: as §4, §2, §3

[7] = AVESA V208, SEQ ID NO: 14, read-out: IC50
[8] = AVESA V349, SEQ ID NO: 47, read-out: IC50
[9] = AVESA V357, SEQ ID NO: 53, read-out: IC50

COc1ccc(-n2nc(C)cc(C(=O)C3C(=O)CCCC3=O)c2=O)cc1OC [Herbicide C, dioxopyritrione]
herbicidal damage scoring, Herbicide C 100 g/ha (wild-type tobacco plants): 95 and 99 and 96
herbicidal damage scoring, Herbicide C (200 g/ha) (wild-type tobacco plants): 95 and 97 and 98 and 96
IC50 [1, 7]: > 50 µM
IC50 fold improvement over SEQ ID NO: 122 [2]: no improvement
IC50 [3, 8]: > 50 µM
IC50 [4, 9]: 0.28 µM
IC50 [5]: 0.26 µM
IC50 [6]: 0.25 µM

bicyclopyrone
herbicidal damage scoring, Bicyclopyrone (800 g/ha) (wild-type tobacco plants): 95
IC50 [1, 7]: 39.3 µM
IC50 fold improvement over SEQ ID NO: 122 [2]: 110 ×
IC50 [3, 8]: 10.2 µM
IC50 [4, 9]: 42.1 µM
IC50 [5]: < 0.39 µM
IC50 [6]: 0.53 µM

Cn1nnnc1NC(=O)c1ccc(C(F)(F)F)nc1-n1cncn1 [Herbicide D, N-(1-methyltetrazol-5-yl)-2-(1,2,4-triazol-1-yl)-6-(trifluoromethyl)pyridine-3-carboxamide]
herbicidal damage scoring, Herbicide D (2000 g/ha) (wild-type tobacco plants): 99 and 96 and 97 and 95
IC50 [1]: 182 µM
IC50 fold improvement over SEQ ID NO: 122 [2]: 36 ×
IC50 [3]: 197 µM
IC50 [4]: 243 µM
IC50 [5]: 11.3 µM
IC50 [6]: 10.5 µM
